± gives the expanded uncertainty stated by the source.
Experiments:
[1] = xn = mol fraction of the nth substance listed; conditions: 101.3 kPa, Liquid, Vibrating tube method
[2] = molar heat capacity at constant pressure; xn = mol fraction of the nth substance listed; conditions: 101.3 kPa, Liquid, Small sample (50 mg) DSC
[3] = excess molar enthalpy (molar enthalpy of mixing); xn = mol fraction of the nth substance listed; conditions: 303.15 K, 101.3 kPa, Liquid, Calvet calorimetry

C[N+](=O)[O-] [nitromethane] + CCn1cc[n+](C)c1.O=S(=O)([O-])C(F)(F)F
Conditions | mass density, [1] [kg/m3] | molar heat capacity at constant pressure, [2] [J/K/mol]
293.15 K, x2 = 0.0525 | 1186.8 ± 0.8 | 119.2 ± 1.8
293.15 K, x2 = 0.0981 | 1217.2 ± 0.8 | 130.6 ± 2
293.15 K, x2 = 0.2013 | 1266.6 ± 1 | 157 ± 2.4
293.15 K, x2 = 0.3063 | 1300.5 ± 1.1 | 183.7 ± 2.8
293.15 K, x2 = 0.4027 | 1323.1 ± 1.2 | 208.2 ± 3.2
293.15 K, x2 = 0.4995 | 1340.5 ± 1.3 | 233.2 ± 3.6
293.15 K, x2 = 0.5934 | 1353.9 ± 1.4 | 257.3 ± 4
293.15 K, x2 = 0.6847 | 1364.4 ± 1.4 | 280.5 ± 4.3
293.15 K, x2 = 0.7698 | 1372.6 ± 1.5 | 301.6 ± 4.7
293.15 K, x2 = 0.8671 | 1380.5 ± 1.6 | 326.9 ± 5.1
298.15 K, x2 = 0.0525 | 1180.5 ± 0.8 | 119.5 ± 1.9
298.15 K, x2 = 0.0981 | 1211.2 ± 0.8 | 130.9 ± 2
298.15 K, x2 = 0.2013 | 1261.1 ± 1 | 157.6 ± 2.4
298.15 K, x2 = 0.3063 | 1295.4 ± 1.1 | 184.4 ± 2.9
298.15 K, x2 = 0.4027 | 1318.2 ± 1.2 | 209.1 ± 3.2
298.15 K, x2 = 0.4995 | 1335.7 ± 1.3 | 234.3 ± 3.6
298.15 K, x2 = 0.5934 | 1349.2 ± 1.3 | 258.5 ± 4
298.15 K, x2 = 0.6847 | 1359.9 ± 1.4 | 281.9 ± 4.4
298.15 K, x2 = 0.7698 | 1368.2 ± 1.5 | 303.3 ± 4.7
298.15 K, x2 = 0.8671 | 1376.2 ± 1.6 | 328.8 ± 5.1
303.15 K, x2 = 0.0525 | 1174.3 ± 0.8 | 120 ± 1.9
303.15 K, x2 = 0.0981 | 1205.3 ± 0.8 | 131.4 ± 2
303.15 K, x2 = 0.2013 | 1255.7 ± 0.9 | 158.3 ± 2.5
303.15 K, x2 = 0.3063 | 1290.3 ± 1.1 | 185.2 ± 2.9
303.15 K, x2 = 0.4027 | 1313.3 ± 1.2 | 210.1 ± 3.3
303.15 K, x2 = 0.4995 | 1331 ± 1.3 | 235.5 ± 3.6
303.15 K, x2 = 0.5934 | 1344.7 ± 1.3 | 259.9 ± 4
303.15 K, x2 = 0.6847 | 1355.4 ± 1.4 | 283.3 ± 4.4
303.15 K, x2 = 0.7698 | 1363.8 ± 1.5 | 305 ± 4.7
303.15 K, x2 = 0.8671 | 1371.9 ± 1.6 | 330.7 ± 5.1
308.15 K, x2 = 0.0525 | 1168 ± 0.7 | 120.4 ± 1.9
308.15 K, x2 = 0.0981 | 1199.3 ± 0.8 | 131.8 ± 2
308.15 K, x2 = 0.2013 | 1250.2 ± 0.9 | 159.1 ± 2.5
308.15 K, x2 = 0.3063 | 1285.2 ± 1 | 186.1 ± 2.9
308.15 K, x2 = 0.4027 | 1308.4 ± 1.1 | 211.1 ± 3.3
308.15 K, x2 = 0.4995 | 1326.3 ± 1.2 | 236.7 ± 3.7
308.15 K, x2 = 0.5934 | 1340.1 ± 1.3 | 261.3 ± 4
308.15 K, x2 = 0.6847 | 1351 ± 1.4 | 284.8 ± 4.4
308.15 K, x2 = 0.7698 | 1359.4 ± 1.5 | 306.7 ± 4.8
308.15 K, x2 = 0.8671 | 1367.6 ± 1.6 | 332.7 ± 5.2
313.15 K, x2 = 0.0525 | 1161.7 ± 0.7 | 121 ± 1.9
313.15 K, x2 = 0.0981 | 1193.4 ± 0.8 | 132.4 ± 2.1
313.15 K, x2 = 0.2013 | 1244.8 ± 0.9 | 160 ± 2.5
313.15 K, x2 = 0.3063 | 1280.1 ± 1 | 187 ± 2.9
313.15 K, x2 = 0.4027 | 1303.6 ± 1.1 | 212.1 ± 3.3
313.15 K, x2 = 0.4995 | 1321.6 ± 1.2 | 238 ± 3.7
313.15 K, x2 = 0.5934 | 1335.5 ± 1.3 | 262.7 ± 4.1
313.15 K, x2 = 0.6847 | 1346.5 ± 1.4 | 286.3 ± 4.4
313.15 K, x2 = 0.7698 | 1355.1 ± 1.5 | 308.5 ± 4.8
313.15 K, x2 = 0.8671 | 1363.4 ± 1.6 | 334.7 ± 5.2
318.15 K, x2 = 0.0525 | 1155.4 ± 0.7 | 121.4 ± 1.9
318.15 K, x2 = 0.0981 | 1187.4 ± 0.8 | 132.8 ± 2.1
318.15 K, x2 = 0.2013 | 1239.3 ± 0.9 | 160.8 ± 2.5
318.15 K, x2 = 0.3063 | 1275 ± 1 | 188 ± 2.9
318.15 K, x2 = 0.4027 | 1298.7 ± 1.1 | 213 ± 3.3
318.15 K, x2 = 0.4995 | 1316.9 ± 1.2 | 239.2 ± 3.7
318.15 K, x2 = 0.5934 | 1331 ± 1.3 | 264.2 ± 4.1
318.15 K, x2 = 0.6847 | 1342.1 ± 1.4 | 287.8 ± 4.5
318.15 K, x2 = 0.7698 | 1350.7 ± 1.5 | 310.3 ± 4.8
318.15 K, x2 = 0.8671 | 1359.1 ± 1.6 | 336.7 ± 5.2

[3]
Conditions | excess molar enthalpy [kcal/mol]
x2 = 0.1234 | -0.0301 ± 0.00239
x2 = 0.2533 | -0.0457 ± 0.00359
x2 = 0.3774 | -0.0468 ± 0.00382
x2 = 0.5026 | -0.048 ± 0.00382
x2 = 0.6253 | -0.0399 ± 0.00335
x2 = 0.7438 | -0.0299 ± 0.00239
x2 = 0.8668 | -0.0139 ± 0.0012
